Source: ChEMBL document CHEMBL5620356, “Sulfur-fluoride exchange (SuFEx)-enabled lead discovery of AChE inhibitors by fragment linking strategies” (Eur J Med Chem, 2023)
The source made the active and inactive calls. The rule behind the calls is not given here.

Columns and labels:
Cholinesterase = Cholinesterase (Equus caballus, UniProt P81908); experiment: Inhibition of equine serum BuChE using butyrylthiocholine iodide as substrate preincubated for 20 mins followed by substrate addition and measured after 20 mins by DTNB reagent based Ellman's method; assay type: cell-free
Cholinesterase, sequence (P81908 whole entry): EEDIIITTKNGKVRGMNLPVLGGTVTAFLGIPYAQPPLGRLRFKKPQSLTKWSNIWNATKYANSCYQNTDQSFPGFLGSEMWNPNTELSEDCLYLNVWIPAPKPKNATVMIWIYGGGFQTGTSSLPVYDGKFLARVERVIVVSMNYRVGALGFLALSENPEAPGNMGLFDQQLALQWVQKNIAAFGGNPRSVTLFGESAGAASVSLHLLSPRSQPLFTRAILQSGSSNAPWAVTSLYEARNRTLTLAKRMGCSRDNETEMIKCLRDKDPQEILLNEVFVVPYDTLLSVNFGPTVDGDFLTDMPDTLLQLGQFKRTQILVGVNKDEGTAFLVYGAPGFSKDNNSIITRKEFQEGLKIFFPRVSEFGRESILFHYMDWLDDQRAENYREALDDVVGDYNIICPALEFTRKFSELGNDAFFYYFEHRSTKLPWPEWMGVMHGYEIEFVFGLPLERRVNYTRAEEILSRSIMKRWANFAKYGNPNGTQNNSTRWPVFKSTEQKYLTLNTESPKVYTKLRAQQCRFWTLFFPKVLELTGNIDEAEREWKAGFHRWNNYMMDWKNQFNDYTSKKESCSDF

Acetylcholinesterase [1] = target: T1, Acetylcholinesterase (Electrophorus electricus, UniProt O42275); experiment: Inhibition of electric eel AChE using acetylthiocholine iodide as substrate preincubated for 20 mins followed by substrate addition and measured after 20 mins by DTNB reagent based Ellman's method
T1 sequence (O42275 whole entry): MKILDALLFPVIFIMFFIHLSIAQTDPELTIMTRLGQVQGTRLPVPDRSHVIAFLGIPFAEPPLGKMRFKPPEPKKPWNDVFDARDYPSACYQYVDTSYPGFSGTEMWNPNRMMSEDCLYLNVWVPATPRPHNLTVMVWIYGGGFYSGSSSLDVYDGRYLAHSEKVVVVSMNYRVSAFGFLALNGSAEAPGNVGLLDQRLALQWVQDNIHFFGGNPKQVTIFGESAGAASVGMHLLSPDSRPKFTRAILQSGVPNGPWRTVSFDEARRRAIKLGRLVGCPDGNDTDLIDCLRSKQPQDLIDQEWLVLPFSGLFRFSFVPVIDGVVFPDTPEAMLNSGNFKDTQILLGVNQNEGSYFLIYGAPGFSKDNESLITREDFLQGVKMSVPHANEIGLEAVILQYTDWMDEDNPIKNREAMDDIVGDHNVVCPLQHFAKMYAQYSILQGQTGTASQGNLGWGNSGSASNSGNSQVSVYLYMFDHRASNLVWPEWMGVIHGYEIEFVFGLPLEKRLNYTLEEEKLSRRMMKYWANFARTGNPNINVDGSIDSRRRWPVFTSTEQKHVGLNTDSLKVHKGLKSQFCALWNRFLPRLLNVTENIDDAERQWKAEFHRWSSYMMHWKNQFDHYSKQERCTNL

Acetylcholinesterase [2] = target: T1, Acetylcholinesterase; experiment: Inhibition of electric eel AChE incubated overnight by two fold serial dilution method
[3] = Permeability of the compound in PBS at pH 7.4 by incubated for 18 hrs by […] assay based UV- spectroscopy; assay type: ADME; settings: read-out: permeability
Acetylcholinesterase [4] = target: T1, Acetylcholinesterase; experiment: Inhibition of electric eel AChE assessed as inhibition constant using acetylthiocholine iodide as substrate by Lineweaver-Burk plot analysis
Mus musculus [5] = experiment: Neuroprotective activity against amyloid beta 1-42 peptide induced ICR mouse assessed as decrease in cognitive function impairment at 5 mg/kg,po administration; assay type: functional, organism-based
Mus musculus [6] = experiment: Neuroprotective activity against amyloid beta 1-42 peptide induced ICR mouse assessed as increase in number of neurons in hippocampus at 5 mg/kg,po administration by hematoxylin-eosin staining based microscopic analysis; assay type: functional, organism-based
Mus musculus [7] = experiment: Neuroprotective activity against amyloid beta 1-42 peptide induced ICR mouse assessed as reduction in latency at 5 mg/kg,po administration; assay type: functional, organism-based
PC-12 = experiment: Neuroprotective activity against H2O2-induced injury in rat PC12 cells assessed as increase in cell viability at 25 uM preincubated for 3 hrs followed by H2O2 addition and measured after 24 hrs by MTT assay relative to control; assay type: functional; settings: time 27 hrs
[8] = target: Acetylcholinesterase (Electrophorus electricus) (UniProt O42275); experiment: Inhibition of electric eel AChE using acetylthiocholine iodide as substrate at 20 uM preincubated for 20 mins followed by substrate addition and measured after 20 mins by DTNB reagent based Ellman's method; settings: time 40.0 min
Acetylcholinesterase (Electrophorus electricus), sequence (O42275 24-633 limits assumed): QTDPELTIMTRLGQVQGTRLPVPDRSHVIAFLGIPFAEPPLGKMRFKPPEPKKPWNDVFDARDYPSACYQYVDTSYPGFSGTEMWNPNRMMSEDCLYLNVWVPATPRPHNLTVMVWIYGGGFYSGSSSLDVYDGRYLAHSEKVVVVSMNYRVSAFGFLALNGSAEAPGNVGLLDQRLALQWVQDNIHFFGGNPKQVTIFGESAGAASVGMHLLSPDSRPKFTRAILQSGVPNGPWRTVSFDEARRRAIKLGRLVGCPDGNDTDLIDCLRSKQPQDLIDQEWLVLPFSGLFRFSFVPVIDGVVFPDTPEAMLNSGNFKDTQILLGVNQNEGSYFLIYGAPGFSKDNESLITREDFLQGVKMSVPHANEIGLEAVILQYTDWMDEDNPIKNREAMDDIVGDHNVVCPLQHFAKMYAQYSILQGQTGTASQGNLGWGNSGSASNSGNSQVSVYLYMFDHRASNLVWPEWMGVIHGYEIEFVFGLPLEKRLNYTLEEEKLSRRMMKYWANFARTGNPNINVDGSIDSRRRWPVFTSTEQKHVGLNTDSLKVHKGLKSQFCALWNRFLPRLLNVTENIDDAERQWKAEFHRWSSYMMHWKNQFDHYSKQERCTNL

[9] = target: Cholinesterase (Equus caballus) (UniProt P81908); experiment: Inhibition of equine serum BuChE using butyrylthiocholine iodide as substrate at 20 uM preincubated for 20 mins followed by substrate addition and measured after 20 mins by DTNB reagent based Ellman's method; assay type: cell-free; settings: time 40.0 min
Cholinesterase (Equus caballus), sequence (P81908 whole entry): as the sequence (P81908 whole entry) above

Compound	IC50 (Cholinesterase) [µM]	IC50 (Acetylcholinesterase [1]) [µM]	IC50 (Acetylcholinesterase [2]) [µM]	Papp at 18 h [3] [×10⁻⁶ cm/s]	other results
Cc1ccc2c(c1)[C@H]1[C@H](S(=O)(=O)F)C[C@H]1NC2=O	5.03	–	–	–	–
CN1C(=O)C(F)=C[C@@H]2[C@H]1C[C@H]2S(=O)(=O)CC1CCN(Cc2ccccc2F)CC1	–	5.38	5.06	–	–
CC(=O)[C@H]1CC[C@H]2[C@@H]3CCC4=CC(=O)CC[C@]4(C)[C@H]3CC[C@]12C [PROGESTERONE]	–	–	–	16.4	–
CN1C(=O)C(F)=C[C@@H]2[C@H]1C[C@@]2(Br)S(=O)(=O)F	14	–	–	–	–
CN1C(=O)C(F)=C[C@@H]2[C@H]1C[C@H]2S(=O)(=O)F	–	18.8	–	–	–
CN1C(=O)C(F)=C[C@@H]2[C@H]1C[C@H]2S(=O)(=O)NCCc1ccccc1F	–	10.8	12.5	–	–
CN1C(=O)C(F)=C[C@@H]2[C@H]1C[C@H]2S(=O)(=O)NCCC1CCN(Cc2ccccc2)CC1	–	0.38	0.34	12.3	–
O=C1N[C@@H]2C[C@@H](S(=O)(=O)NCCC3CCN(Cc4ccccc4)CC3)[C@@H]2c2c(Cl)cccc21	–	0.094	0.099	13.1	Ki (Acetylcholinesterase [4]): 0.128 µM; Activity (Mus musculus [5]): Active; Activity (Mus musculus [6]): Active; Activity (Mus musculus [7]): Active; Activity (PC-12): 77.2%
O=C1N[C@@H]2C[C@@H](S(=O)(=O)F)[C@@H]2c2c(Cl)cccc21	7.98	6.82	–	–	inhibition [8]: Active; inhibition [9]: Active
CN1C(=O)C(F)=C[C@@H]2[C@H]1C[C@H]2S(=O)(=O)N1CCC(Cc2ccc(F)cc2)CC1	–	7.87	8.35	–	–
CC1=C[C@@H]2[C@@H](C[C@@]2(Br)S(=O)(=O)F)N(C)C1=O	10.7	–	–	–	–
CN1C(C(=O)Nc2ccccn2)=C(O)c2ccccc2S1(=O)=O [PIROXICAM]	–	–	–	9.9	–
CN1C(=O)C(F)=C[C@@H]2[C@H]1C[C@H]2S(=O)(=O)NCCc1ccc(F)cc1	–	4.56	3.37	–	–
C[C@]12CC[C@H]3[C@@H](CCC4=CC(=O)CC[C@@]43C)[C@@H]1CC[C@@H]2O [TESTOSTERONE]	–	–	–	1.8	–
O=C1N[C@@H]2C[C@@H](S(=O)(=O)F)[C@@H]2c2c(Br)cccc21	3.3	–	–	–	inhibition [8]: Active; inhibition [9]: Active
CN1C(=O)C(F)=C[C@@H]2[C@H]1C[C@H]2S(=O)(=O)N1CCOCC1	–	1.3	1.8	–	–
CN1C(=O)c2ccccc2[C@@H]2[C@H]1C[C@H]2S(=O)(=O)F	12	–	–	–	–
CCCNS(=O)(=O)[C@@H]1C[C@@H]2[C@H]1C=C(F)C(=O)N2C	–	6.78	5.59	–	–
O=C1N[C@@H]2C[C@@H](S(=O)(=O)NCCC3CCN(Cc4ccccc4)CC3)[C@@H]2c2c(Br)cccc21	–	0.24	0.28	10	–
